Molecules are shown by their SMILES. Numbers after ± are expanded uncertainties.

This data set in a line: activity coefficient (dimensionless); of the first substance listed, at infinite dilution; xn = mol fraction of the nth substance listed. The following applies: 101 kPa, Liquid, Chromatography, x1 = 0.

For the molecule `Cc1ccccc1C` [1,2-dimethylbenzene] + COCC[N+]1(C)CCCCC1.O=S(=O)([N-]S(=O)(=O)C(F)(F)F)C(F)(F)F, the activity coefficient is, setting by setting: (318.15 K) 1.66 ± 0.11; (328.15 K) 1.68 ± 0.11; (338.15 K) 1.69 ± 0.11; (348.15 K) 1.71 ± 0.11; (358.15 K) 1.72 ± 0.12; (368.15 K) 1.73 ± 0.12.

For `Cc1cccc(C)c1` [1,3-dimethylbenzene] + COCC[N+]1(C)CCCCC1.O=S(=O)([N-]S(=O)(=O)C(F)(F)F)C(F)(F)F, the activity coefficient turned out to be 1.8 ± 0.12 (318.15 K); 1.81 ± 0.12 (328.15 K); 1.82 ± 0.12 (338.15 K); 1.83 ± 0.12 (348.15 K); 1.85 ± 0.12 (358.15 K); 1.86 ± 0.13 (368.15 K).

Regarding `Cc1ccc(C)cc1` [1,4-dimethylbenzene] + COCC[N+]1(C)CCCCC1.O=S(=O)([N-]S(=O)(=O)C(F)(F)F)C(F)(F)F, the activity coefficient is, setting by setting: (318.15 K) 1.08 ± 0.07; (328.15 K) 1.1 ± 0.07; (338.15 K) 1.13 ± 0.07; (348.15 K) 1.14 ± 0.07; (358.15 K) 1.16 ± 0.07; (368.15 K) 1.19 ± 0.08.

As for `C1COCCO1` [1,4-dioxane] + COCC[N+]1(C)CCCCC1.O=S(=O)([N-]S(=O)(=O)C(F)(F)F)C(F)(F)F, the activity coefficient is 0.616 ± 0.043 (318.15 K); 0.636 ± 0.044 (328.15 K); 0.654 ± 0.045 (338.15 K); 0.673 ± 0.046 (348.15 K); 0.687 ± 0.046 (358.15 K); 0.705 ± 0.047 (368.15 K).

With `C=CCCCCCCCC` [1-decene] + COCC[N+]1(C)CCCCC1.O=S(=O)([N-]S(=O)(=O)C(F)(F)F)C(F)(F)F, the activity coefficient amounted to 36.2 ± 2.5 (318.15 K); 33.7 ± 2.3 (328.15 K); 31.4 ± 2.1 (338.15 K); 29.2 ± 2 (348.15 K); 27.4 ± 1.9 (358.15 K); 26 ± 1.8 (368.15 K).

With `C=CCCCCC` [1-heptene] + COCC[N+]1(C)CCCCC1.O=S(=O)([N-]S(=O)(=O)C(F)(F)F)C(F)(F)F, the activity coefficient is, setting by setting: (318.15 K) 12.4 ± 0.8; (328.15 K) 11.9 ± 0.8; (338.15 K) 11.4 ± 0.8; (348.15 K) 10.8 ± 0.7; (358.15 K) 10.4 ± 0.7; (368.15 K) 9.99 ± 0.68.

With `C#CCCCCC` [1-heptyne] + COCC[N+]1(C)CCCCC1.O=S(=O)([N-]S(=O)(=O)C(F)(F)F)C(F)(F)F, the activity coefficient was 4.22 ± 0.29 (318.15 K); 4.21 ± 0.29 (328.15 K); 4.19 ± 0.29 (338.15 K); 4.17 ± 0.28 (348.15 K); 4.15 ± 0.28 (358.15 K); 4.15 ± 0.28 (368.15 K).

With `C#CCCCC` [1-hexyne] + COCC[N+]1(C)CCCCC1.O=S(=O)([N-]S(=O)(=O)C(F)(F)F)C(F)(F)F, the activity coefficient by setting is: (318.15 K) 2.98 ± 0.2; (328.15 K) 2.99 ± 0.2; (338.15 K) 3 ± 0.2; (348.15 K) 3.01 ± 0.2; (358.15 K) 3.02 ± 0.21; (368.15 K) 3.03 ± 0.21.

For `CCC[N+](=O)[O-]` [1-nitropropane] + COCC[N+]1(C)CCCCC1.O=S(=O)([N-]S(=O)(=O)C(F)(F)F)C(F)(F)F, the activity coefficient (318.15 K) is 0.724 ± 0.048; the activity coefficient (328.15 K) was found to be 0.725 ± 0.048; the activity coefficient (338.15 K) was 0.726 ± 0.048; the activity coefficient (348.15 K) was determined as 0.727 ± 0.048; the activity coefficient (358.15 K) was 0.727 ± 0.048; the activity coefficient (368.15 K) came to 0.728 ± 0.048.

In the case of `C#CCCCCCC` [1-octyne] + COCC[N+]1(C)CCCCC1.O=S(=O)([N-]S(=O)(=O)C(F)(F)F)C(F)(F)F, the activity coefficient is, setting by setting: (318.15 K) 6.02 ± 0.41; (328.15 K) 5.92 ± 0.4; (338.15 K) 5.85 ± 0.4; (348.15 K) 5.77 ± 0.39; (358.15 K) 5.7 ± 0.39; (368.15 K) 5.63 ± 0.38.

Consider `C=CCCC` [1-pentene] + COCC[N+]1(C)CCCCC1.O=S(=O)([N-]S(=O)(=O)C(F)(F)F)C(F)(F)F, for which the activity coefficient turned out to be 6.03 ± 0.41 (318.15 K); 5.9 ± 0.4 (328.15 K); 5.73 ± 0.39 (338.15 K); 5.6 ± 0.38 (348.15 K); 5.46 ± 0.37 (358.15 K); 5.36 ± 0.37 (368.15 K).

Take `CC(C)CC(C)(C)C` [2,2,4-trimethylpentane] + COCC[N+]1(C)CCCCC1.O=S(=O)([N-]S(=O)(=O)C(F)(F)F)C(F)(F)F: the activity coefficient (318.15 K) came to 23.7 ± 1.1; the activity coefficient (328.15 K) turned out to be 22.3 ± 1; the activity coefficient (338.15 K) was 20.9 ± 1; the activity coefficient (348.15 K) stood at 19.7 ± 0.9; the activity coefficient (358.15 K) turned out to be 18.5 ± 0.9; the activity coefficient (368.15 K) came to 17.6 ± 0.8.

Turning to `CCC(C)(C)C` [2,2-dimethylbutane] + COCC[N+]1(C)CCCCC1.O=S(=O)([N-]S(=O)(=O)C(F)(F)F)C(F)(F)F, the activity coefficient by setting is: (318.15 K) 13.5 ± 0.6; (328.15 K) 12.9 ± 0.6; (338.15 K) 12.4 ± 0.6; (348.15 K) 11.8 ± 0.5; (358.15 K) 11.3 ± 0.5; (368.15 K) 10.9 ± 0.5.

On to `CCOC(C)(C)C` [2-ethoxy-2-methylpropane] + COCC[N+]1(C)CCCCC1.O=S(=O)([N-]S(=O)(=O)C(F)(F)F)C(F)(F)F, for which the activity coefficient (318.15 K) was found to be 5.82 ± 0.4; the activity coefficient (328.15 K) was found to be 5.71 ± 0.39; the activity coefficient (338.15 K) amounted to 5.62 ± 0.38; the activity coefficient (348.15 K) was 5.53 ± 0.38; the activity coefficient (358.15 K) was determined as 5.44 ± 0.37; the activity coefficient (368.15 K) amounted to 5.38 ± 0.37.

On to `CCC(C)(C)OC` [2-methoxy-2-methylbutane] + COCC[N+]1(C)CCCCC1.O=S(=O)([N-]S(=O)(=O)C(F)(F)F)C(F)(F)F, for which the activity coefficient reads like this: (318.15 K) 3.74 ± 0.25; (328.15 K) 3.74 ± 0.25; (338.15 K) 3.73 ± 0.25; (348.15 K) 3.73 ± 0.25; (358.15 K) 3.73 ± 0.25; (368.15 K) 3.72 ± 0.25.

With `COC(C)(C)C` [2-methoxy-2-methylpropane] + COCC[N+]1(C)CCCCC1.O=S(=O)([N-]S(=O)(=O)C(F)(F)F)C(F)(F)F, the activity coefficient (318.15 K) was 2.56 ± 0.17; the activity coefficient (328.15 K) came to 2.59 ± 0.18; the activity coefficient (338.15 K) is 2.63 ± 0.18; the activity coefficient (348.15 K) is 2.66 ± 0.18; the activity coefficient (358.15 K) was determined as 2.69 ± 0.18; the activity coefficient (368.15 K) came out at 2.73 ± 0.19.

`CC(C)CO` [2-methyl-1-propanol] + COCC[N+]1(C)CCCCC1.O=S(=O)([N-]S(=O)(=O)C(F)(F)F)C(F)(F)F: the activity coefficient by setting is: (318.15 K) 2.61 ± 0.18; (328.15 K) 2.34 ± 0.16; (338.15 K) 2.12 ± 0.14; (348.15 K) 1.92 ± 0.13; (358.15 K) 1.75 ± 0.12; (368.15 K) 1.62 ± 0.11.

With `CC(C)(C)O` [2-methylpropan-2-ol] + COCC[N+]1(C)CCCCC1.O=S(=O)([N-]S(=O)(=O)C(F)(F)F)C(F)(F)F, the activity coefficient is 1.87 ± 0.13 (318.15 K); 1.73 ± 0.12 (328.15 K); 1.61 ± 0.11 (338.15 K); 1.5 ± 0.1 (348.15 K); 1.42 ± 0.09 (358.15 K); 1.34 ± 0.09 (368.15 K).

Regarding `CCC(C)CC` [3-methylpentane] + COCC[N+]1(C)CCCCC1.O=S(=O)([N-]S(=O)(=O)C(F)(F)F)C(F)(F)F, the activity coefficient reads like this: (318.15 K) 14.7 ± 0.7; (328.15 K) 13.9 ± 0.6; (338.15 K) 13.2 ± 0.6; (348.15 K) 12.5 ± 0.6; (358.15 K) 11.9 ± 0.6; (368.15 K) 11.5 ± 0.5.

For the molecule `C=C(C)c1ccccc1` [(1-methylethenyl)benzene] + COCC[N+]1(C)CCCCC1.O=S(=O)([N-]S(=O)(=O)C(F)(F)F)C(F)(F)F, the activity coefficient runs as follows: (328.15 K) 1.61 ± 0.11; (338.15 K) 1.66 ± 0.11; (348.15 K) 1.7 ± 0.11; (358.15 K) 1.74 ± 0.12; (368.15 K) 1.78 ± 0.12.

For `CC(C)=O` [acetone] + COCC[N+]1(C)CCCCC1.O=S(=O)([N-]S(=O)(=O)C(F)(F)F)C(F)(F)F, the activity coefficient by setting is: (318.15 K) 0.462 ± 0.036; (328.15 K) 0.471 ± 0.037; (338.15 K) 0.48 ± 0.037; (348.15 K) 0.49 ± 0.037; (358.15 K) 0.498 ± 0.038; (368.15 K) 0.507 ± 0.038.

As to `CC#N` [acetonitrile] + COCC[N+]1(C)CCCCC1.O=S(=O)([N-]S(=O)(=O)C(F)(F)F)C(F)(F)F, the activity coefficient runs as follows: (318.15 K) 0.471 ± 0.037; (328.15 K) 0.471 ± 0.037; (338.15 K) 0.473 ± 0.037; (348.15 K) 0.473 ± 0.037; (358.15 K) 0.474 ± 0.037; (368.15 K) 0.475 ± 0.037.

For the molecule `c1ccccc1` [benzene] + COCC[N+]1(C)CCCCC1.O=S(=O)([N-]S(=O)(=O)C(F)(F)F)C(F)(F)F, the activity coefficient by setting is: (318.15 K) 0.912 ± 0.058; (328.15 K) 0.922 ± 0.058; (338.15 K) 0.934 ± 0.059; (348.15 K) 0.943 ± 0.059; (358.15 K) 0.951 ± 0.06; (368.15 K) 0.961 ± 0.06.

Regarding `CCCCO` [butan-1-ol] + COCC[N+]1(C)CCCCC1.O=S(=O)([N-]S(=O)(=O)C(F)(F)F)C(F)(F)F, the activity coefficient reads like this: (318.15 K) 2.72 ± 0.19; (328.15 K) 2.45 ± 0.17; (338.15 K) 2.22 ± 0.15; (348.15 K) 2.01 ± 0.14; (358.15 K) 1.85 ± 0.12; (368.15 K) 1.71 ± 0.11.

Regarding `CCC(C)O` (centres undefined) [butan-2-ol] + COCC[N+]1(C)CCCCC1.O=S(=O)([N-]S(=O)(=O)C(F)(F)F)C(F)(F)F, the activity coefficient reads like this: (318.15 K) 2.26 ± 0.15; (328.15 K) 2.07 ± 0.14; (338.15 K) 1.89 ± 0.13; (348.15 K) 1.74 ± 0.12; (358.15 K) 1.62 ± 0.11; (368.15 K) 1.52 ± 0.1.

The values above are taken from the NIST ThermoML archive (doi:10.1016/j.jct.2012.01.019).
